Source: patent publication US20100166737A1, “P38Alpha as a Therapeutic Target in Bladder Carcinoma” (INSTITUT CURIE, priority 2007, published 2010)

How the values were obtained:
MGH-U3 cells = assay: Soft agar assay, anchorage-independent growth of MGH-U3 cells; assay type: cell-based, human; details: 14 days; FIG. 2C
Procedure: (§1) For NIH-3T3, 30,000 transfected cells were added, in triplicate, to each well of a 12-well plate containing DMEM supplemented with 10% NCS and solidified with agar. For MGH-U3, 20,000 non-transfected or siRNA-transfected cells were added, to triplicate wells of 12-well plates containing MEM supplemented with 10% FCS and agar. When necessary, both cell types were cultured in the presence or absence of different inhibitors in agar and in culture medium. The same amount of inhibitor was added to the culture medium weekly.
(§2) The plates were incubated for 21 or 14 days for NIH-3T3 and MGH-U3 cells respectively, and colonies with diameters greater than 50 μm were then scored as positive, using a phase-contrast microscope equipped with a measuring grid.

[1] = test system: transgenic mice tumor cell proliferation; assay: BrdU labelling, snout tumour cell proliferation in K5-FGFR3-S249C transgenic mice; assay type: in vivo; details: 100 μM SB203580 on snout daily during 2 weeks; FIG. 3D
Procedure: (§3) Transgenic mice (K5-FGFR3-S249C) expressing mutated receptor FGFR3b— S249C in basal cells of the epidermis were established previously (Logi& et al 2005, Hum. Mol. Genet. 14, 1153-1160). 40 μl of 100 μM SU5402 or of 100 μM SB203580 or of vehicule (acetone) were applied daily during 2 weeks on snout of 3 to 4 months old transgenic mice who had developed epidermal tumours on snout or of control littermates mice. Two hours prior sacrifice mice were injected (i.p), with 0.25 mg/g body weight Brdu (Sigma, Saint-Quentin Falavier, France). Brdu immunohistochemistry was performed on parafine embed snout tissue with BrdU in situ detection kit (BD Pharmingen, San Diego, Calif., USA) according to the manufacturer's instructions. The number of BrdU-labeled cells among 500 cells from basal epidermis layer was determined for each mouse. Total snout cells lysate (75 μg) were analyzed as described above using antibodies against p38 and phospho-p38 (Pp38).

[2] = test system: NIH-3T3 cell line transfected by mutated FGFR3-S249C; details: AACR abstract April 2005; cited from earlier work
NIH-3T3 control cells = assay: Morphology analysis of NIH-3T3 control cells; assay type: cell-based; details: data not shown
Procedure: (§4) NIH-3T3 cells were cultured 48 h in presence of different inhibitors, SB203580 and SU5402 (Calbiochem, Merck Eurolab, Fontenay Sous Bois, France), and pictures were taken using a phase-contrast microscope.

[3] = test system: FGFR3-S249C-expressing NIH-3T3 cells (clone S249C1.2); assay: Morphology analysis of FGFR3-S249C-expressing NIH-3T3 cells; assay type: cell-based; details: 30 μM, 48 h; FIG. 1C
Procedure: as §4

MGH-U3 xenograft = MGH-U3 xenograft growth in athymic nude mice; assay type: in vivo; details: intratumoral, daily, 100 μl of 20 μM, up to 25 days; FIG. 2D
Procedure: Ten six-week-old female Swiss nu/nu mice were raised in the animal facilities of the Curie Institute in specified pathogen-free conditions. Their care and housing were in accordance with the institutional guidelines of the French National Ethics Committee (Ministere de l'Agriculture et de la Forêt, Direction de la Santë et de la Protection Animate, Paris, France) and were supervised by authorised investigators. Each mouse was injected subcutaneously in each flank (dorsal region) with 4×10^6 cells/site. When tumours reached 50 mm^3 (+/−10), mice were randomly separated into two group of 5 mice. 100 μl of 20 μM SB203580 or equal volume of PBS were administrated daily in tumours. Tumour formation was monitored for up to 25 days and the size of tumours was measured with Vernier calipers: two perpendicular diameters were used to estimate tumour volumes by the formule ab^2/2, where a is the largest and b the smallest diameter.

[4] = test system: control mice basal epidermal cells; assay: BrdU labelling, basal epidermal cell proliferation in control littermate mice; assay type: in vivo; details: 100 μM SB203580 on snout daily during 2 weeks, FIG. 3D
Procedure: as §3

[5] = test system: NIH-3T3 cell line transfected by mutated FGFR3-S249C; details: AACR abstract April 2005; cited from earlier work; remark: listed apart in the source
[6] = test system: FGFR3-S249C-expressing cells (S249C1.2); assay: Soft agar assay of FGFR3-S249C-expressing NIH-3T3 cells; assay type: cell-based; details: 21 days, colonies greater than 50 μm; FIG. 1D
Procedure: as §1, §2

[7] = test system: p38 phosphorylation in transgenic mice snout; assay: Immunoblot of p38 phosphorylation in snout of K5-FGFR3-S249C transgenic mice; assay type: in vivo; details: 100 μM SU5402 on snout daily during 2 weeks; FIG. 3C
Procedure: as §3

[8] = test system: p38 phosphorylation in FGFR3-S249C expressing NIH-3T3 clones; assay: Immunoblot of p38 phosphorylation in FGFR3-S249C expressing NIH-3T3 clones; assay type: cell-based; details: 30 μM SU5402, 24 hours; clones S249C1.1 and S249C1.2; FIG. 1B
Procedure: (§5) Transfected NIH-3T3 cells were washed once with PBS and serum-starved for 24 h. Where required, cells were stimulated for 5 min with 20 ng/ml FGF1 in the presence of 50 μg/ml heparin at 37° C. They were then lysed in lysis buffer (50 mM Tris-HCl (pH 7.4), 150 mM NaCl, 1% NP-40, 0.25% sodium deoxycholate, 1 mM EDTA, 1 mM Na3VO4, 5 mM NaF, 1 μ/ml aprotinin, 1 μg/ml leupeptin and 1 μg/ml pepstatin) and the lysates were clarified by centrifugation. The protein concentrations of the supernatants were determined with the Biorad Bradford Protein Assay Kit (BioRad, Ivry sur Seine, France). Proteins from total cell lysates (75 μg protein) were resolved by SDS-PAGE on 10% polyacrylamide gels, electrotransferred to Immobilon-P membrane in 25 mM Tris, pH 8.3, 200 mM glycine, 10% ethanol and analyzed using antibodies against p38 (#9212), Aid (#9272), p42/p44 (#9102) and the phosphorylated forms of these proteins (phospho AKT (Thr308) #9275; phospho p42/p44 (thr202/tyr204) # 9101; phospho p38 (thr180/tyr182) (cell signaling Technology, Ozyme, Montigny le Bretonneux, France)

[9] = test system: p38 phosphorylation in MGH-U3 cells; assay: Immunoblot of p38 phosphorylation in MGH-U3 cells; assay type: cell-based, human; details: 30 μM SU5402, 24 hours; FIG. 2A
Procedure: as §5
MGH-U3 total cell lysates (75 μg) were analyzed similarly using antibodies against p38, phospho-p38 and Akt.

Structure (SMILES) | colonies on soft agar relative to control cells (MGH-U3 cells) | tumor cell proliferation (BrdU labelling) [1] | transformed phenotype of the cells [2] | effect on the control cell phenotype (NIH-3T3 control cells) | transformed phenotype (morphology) [3] | MGH-U3 xenograft growth (MGH-U3 xenograft) | basal epidermal cells proliferation (BrdU labelling) [4] | abilities to form colonies in soft agar [5] | ability to form colonies in a soft agar assay [6] | p38 phosphorylation [7] | p38 phosphorylation [8] | p38 phosphorylation [9]
C[S+]([O-])c1ccc(-c2nc(-c3ccncc3)c(-c3ccc(F)cc3)[nH]2)cc1 (stereo not drawn) [SB203580] | one third | significant decreased | inhibits | no effect | reverted | significantly reduced | no effect | inhibits | inhibited | – | – | –
Cc1c[nH]c(/C=C2\C(=O)Nc3ccccc32)c1CCC(=O)O [SU5402] | – | – | – | no effect | reverted | – | – | – | inhibited | decreased | inhibited | suppressed
